Laboratory results reported in patent publication US11306092B2, “Amino indole compounds useful as TLR inhibitors” (BRISTOL-MYERS SQUIBB COMPANY, priority 2017, dated 2022).

What was measured:
Assay type in all cases: cell-based
[1] = molecular target: T1, human TLR7 (Homo sapiens, UniProt Q9NYK1); assay: TLR7 inhibition reporter assay (HEK-Blue SEAP reporter); details: HEK-Blue cells overexpressing human TLR7; gardiquimod 7.5 μM; 22 hour incubation
T1 construct: host or cells: HEK-Blue cells
T1 sequence (Q9NYK1 27-1049): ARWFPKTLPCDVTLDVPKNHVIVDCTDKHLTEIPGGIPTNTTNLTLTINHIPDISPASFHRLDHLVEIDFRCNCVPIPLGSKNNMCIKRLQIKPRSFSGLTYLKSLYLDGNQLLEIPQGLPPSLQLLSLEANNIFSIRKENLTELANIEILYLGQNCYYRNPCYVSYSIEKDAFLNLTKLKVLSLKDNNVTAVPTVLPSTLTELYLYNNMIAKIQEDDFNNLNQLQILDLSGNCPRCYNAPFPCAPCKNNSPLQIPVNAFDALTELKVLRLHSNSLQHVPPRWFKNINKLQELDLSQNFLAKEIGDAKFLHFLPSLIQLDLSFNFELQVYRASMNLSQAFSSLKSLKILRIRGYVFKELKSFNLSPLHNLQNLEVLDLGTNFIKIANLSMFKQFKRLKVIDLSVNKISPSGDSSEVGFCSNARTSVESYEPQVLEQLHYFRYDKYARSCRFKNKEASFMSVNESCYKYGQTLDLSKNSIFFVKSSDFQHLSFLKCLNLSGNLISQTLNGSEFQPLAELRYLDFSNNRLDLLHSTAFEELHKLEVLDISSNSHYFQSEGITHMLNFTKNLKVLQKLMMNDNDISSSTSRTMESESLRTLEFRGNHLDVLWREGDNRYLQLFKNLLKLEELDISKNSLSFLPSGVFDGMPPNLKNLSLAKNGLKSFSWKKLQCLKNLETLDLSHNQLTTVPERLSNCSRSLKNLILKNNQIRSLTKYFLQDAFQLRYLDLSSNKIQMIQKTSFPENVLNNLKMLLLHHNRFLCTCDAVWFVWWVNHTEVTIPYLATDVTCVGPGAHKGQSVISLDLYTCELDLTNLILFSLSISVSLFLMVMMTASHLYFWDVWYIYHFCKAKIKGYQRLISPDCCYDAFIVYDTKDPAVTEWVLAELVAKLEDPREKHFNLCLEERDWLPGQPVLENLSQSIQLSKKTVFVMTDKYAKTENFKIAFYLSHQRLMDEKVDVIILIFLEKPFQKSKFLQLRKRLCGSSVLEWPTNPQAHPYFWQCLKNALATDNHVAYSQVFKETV
Method in brief: (§1)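 Compound treatment: 30 min, RT, 0.05 nM–50 μM final. Agonist: TLR7 gardiquimod 7.5 μM; TLR8 R848 15.9 μM; TLR9 ODN2006 5 nM. Incubation 22 h, 37 °C, 5% CO2. Readout SEAP, HEK-Blue Detection.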

[2] = molecular target: T2, human TLR8 (Homo sapiens, UniProt Q9NR97); assay: TLR8 inhibition reporter assay (HEK-Blue SEAP reporter); details: HEK-Blue cells overexpressing human TLR8; R848 15.9 μM; 22 hour incubation
T2 construct: host or cells: HEK-Blue cells
T2 sequence (Q9NR97 27-1041): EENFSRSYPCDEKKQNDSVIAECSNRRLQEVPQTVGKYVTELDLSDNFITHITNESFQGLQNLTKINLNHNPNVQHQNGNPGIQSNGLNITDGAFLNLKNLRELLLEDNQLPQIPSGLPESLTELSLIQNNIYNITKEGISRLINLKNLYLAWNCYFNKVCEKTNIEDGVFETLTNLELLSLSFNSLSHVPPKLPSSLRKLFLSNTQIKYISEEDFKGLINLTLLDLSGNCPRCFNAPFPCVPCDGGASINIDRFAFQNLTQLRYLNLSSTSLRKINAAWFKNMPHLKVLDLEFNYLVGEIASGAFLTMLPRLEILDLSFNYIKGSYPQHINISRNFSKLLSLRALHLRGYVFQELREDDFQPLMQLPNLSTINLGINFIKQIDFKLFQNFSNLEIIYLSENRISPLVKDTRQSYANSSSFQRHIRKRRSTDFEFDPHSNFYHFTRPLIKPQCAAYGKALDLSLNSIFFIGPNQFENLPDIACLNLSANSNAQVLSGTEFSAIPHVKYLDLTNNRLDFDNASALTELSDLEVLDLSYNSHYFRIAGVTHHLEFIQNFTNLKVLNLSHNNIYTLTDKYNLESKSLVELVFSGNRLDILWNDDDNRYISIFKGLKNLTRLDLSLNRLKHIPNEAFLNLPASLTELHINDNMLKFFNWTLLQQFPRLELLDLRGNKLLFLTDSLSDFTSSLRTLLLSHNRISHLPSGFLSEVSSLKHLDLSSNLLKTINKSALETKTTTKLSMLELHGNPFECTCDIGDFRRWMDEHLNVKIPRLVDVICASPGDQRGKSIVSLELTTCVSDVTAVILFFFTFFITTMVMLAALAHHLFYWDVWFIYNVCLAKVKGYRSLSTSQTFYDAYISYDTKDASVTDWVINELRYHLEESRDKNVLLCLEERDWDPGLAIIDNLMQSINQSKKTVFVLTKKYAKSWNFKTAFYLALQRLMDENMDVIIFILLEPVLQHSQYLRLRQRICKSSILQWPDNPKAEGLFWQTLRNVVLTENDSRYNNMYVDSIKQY
Method in brief: as §1

[3] = molecular target: T3, human TLR9 (Homo sapiens, UniProt Q9NR96); assay: TLR9 inhibition reporter assay (HEK-Blue SEAP reporter); details: HEK-Blue cells overexpressing human TLR9; ODN2006 5 nM; 22 hour incubation
T3 construct: host or cells: HEK-Blue cells
T3 sequence (Q9NR96 26-1032): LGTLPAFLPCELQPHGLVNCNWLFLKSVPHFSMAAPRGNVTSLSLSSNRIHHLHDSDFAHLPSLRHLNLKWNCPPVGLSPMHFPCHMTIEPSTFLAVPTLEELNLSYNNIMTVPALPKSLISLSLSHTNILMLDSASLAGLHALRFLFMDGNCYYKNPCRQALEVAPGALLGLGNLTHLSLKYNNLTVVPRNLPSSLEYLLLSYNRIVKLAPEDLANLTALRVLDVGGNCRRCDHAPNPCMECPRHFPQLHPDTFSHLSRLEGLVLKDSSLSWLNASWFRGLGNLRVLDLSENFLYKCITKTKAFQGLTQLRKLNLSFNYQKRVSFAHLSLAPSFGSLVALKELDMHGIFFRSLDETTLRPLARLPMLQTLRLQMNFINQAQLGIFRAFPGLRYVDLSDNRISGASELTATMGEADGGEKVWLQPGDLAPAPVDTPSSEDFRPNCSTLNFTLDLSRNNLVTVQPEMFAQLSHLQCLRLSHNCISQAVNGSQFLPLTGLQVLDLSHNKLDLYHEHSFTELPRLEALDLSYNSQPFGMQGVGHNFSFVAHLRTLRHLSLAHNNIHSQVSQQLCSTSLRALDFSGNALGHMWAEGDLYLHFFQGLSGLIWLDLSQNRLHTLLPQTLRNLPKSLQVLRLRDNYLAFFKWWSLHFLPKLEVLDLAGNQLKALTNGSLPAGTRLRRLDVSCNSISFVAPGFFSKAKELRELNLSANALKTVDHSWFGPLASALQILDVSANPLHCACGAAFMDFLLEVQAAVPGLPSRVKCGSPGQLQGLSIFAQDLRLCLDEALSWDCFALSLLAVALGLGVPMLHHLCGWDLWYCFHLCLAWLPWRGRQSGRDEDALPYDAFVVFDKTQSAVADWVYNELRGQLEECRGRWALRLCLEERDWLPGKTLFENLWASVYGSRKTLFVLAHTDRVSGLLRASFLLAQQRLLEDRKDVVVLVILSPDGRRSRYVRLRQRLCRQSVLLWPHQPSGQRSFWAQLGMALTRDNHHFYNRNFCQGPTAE
Method in brief: as §1

COc1ccc(-c2[nH]c3ccc(N4CCC(CCN5CCCC5)CC4)cc3c2C(C)C)cc1OC [Example 115, 2-(3,4-dimethoxyphenyl)-3-isopropyl-5-(4-(2-(pyrrolidin-1-yl)ethyl)piperidin-1-yl)-1H-indole]
IC50 [1]: 31 nM
IC50 [2]: 61 nM
IC50 [3]: 621 nM

COc1ccc(-c2[nH]c3ccc(N4CCC(N5CCN(CCCN6CCCC6)CC5)CC4)cc3c2C(C)C)cc1OC [Example 102, 2-(3,4-dimethoxyphenyl)-3-isopropyl-5-(4-(4-(3-(pyrrolidin-1-yl)propyl)piperazin-1-yl)piperidin-1-yl)-1H-indole]
IC50 [1]: 16 nM
IC50 [2]: 28 nM
IC50 [3]: 413 nM

CCc1c(-c2ccc(OC)c(OC)c2)[nH]c2ccc(N3CCC(C4CCNCC4)CC3)cc12 [Example 131, 5-([4,4′-bipiperidin]-1-yl)-2-(3,4-dimethoxyphenyl)-3-ethyl-1H-indole]
IC50 [1]: 187 nM
IC50 [2]: 132 nM
IC50 [3]: 648 nM

COc1ccc(-c2[nH]c3ccc(NC(=O)CN)cc3c2C(C)C)cc1OC [Example 11, 2-amino-N-(2-(3,4-dimethoxyphenyl)-3-isopropyl-1H-indol-5-yl)acetamide]
IC50 [1]: 290 nM
IC50 [2]: 17 nM
IC50 [3]: 8600 nM

CC(C)c1c(-c2ccnc3[nH]ncc23)[nH]c2ccc(NC(=O)[C@H]3CCNC3)cc12 [Example 10, (S)—N-(3-isopropyl-2-(1H-pyrazolo[3,4-b]pyridin-4-yl)-1H-indol-5-yl)pyrrolidine-3-carboxamide]
IC50 [1]: 73 nM
IC50 [2]: 96 nM
IC50 [3]: 7720 nM

CCc1c(-c2ccnc(C)c2)[nH]c2ccc(N3CCN(C4CCN(C)CC4)CC3)cc12 [Example 139, 3-ethyl-5-(4-(1-methylpiperidin-4-yl)piperazin-1-yl)-2-(2-methylpyridin-4-yl)-1H-indole]
IC50 [1]: 2760 nM
IC50 [2]: 1070 nM
IC50 [3]: 157 nM

COc1ccc(-c2[nH]c3ccc(NC4CCC(NCCN5CCOCC5)CC4)cc3c2C(C)C)cc1OC (stereo not drawn) [Example 47, N1-(2-(3,4-dimethoxyphenyl)-3-isopropyl-1H-indol-5-yl)-N4-(2-morpholinoethyl)cyclohexane-1,4-diamine]
IC50 [1]: 222 nM
IC50 [2]: 276 nM
IC50 [3]: 624 nM

Cc1cc(-c2[nH]c3ccc(N4CCC(N(C)CCN)C4=O)cc3c2C(C)C)ccn1 (stereo not drawn) [Example 2, 3-((2-aminoethyl)(methyl)amino)-1-(3-isopropyl-2-(2-methylpyridin-4-yl)-1H-indol-5-yl)pyrrolidin-2-one]
IC50 [1]: 99 nM
IC50 [2]: 28 nM
IC50 [3]: 4970 nM

CCc1c(-c2ccc(OC)c(OC)c2)[nH]c2ccc(N3CCC(OC4CCN(C(C)C)CC4)CC3)cc12 [Example 191, 2-(3,4-dimethoxyphenyl)-3-ethyl-5-(4-((1-isopropylpiperidin-4-yl)oxy)piperidin-1-yl)-1H-indole]
IC50 [1]: 87 nM
IC50 [2]: 66 nM
IC50 [3]: 836 nM

COc1ccc(-c2[nH]c3ccc(NC(=O)CCCN)cc3c2C(C)C)cc1OC [Example 12, 4-amino-N-(2-(3,4-dimethoxyphenyl)-3-isopropyl-1H-indol-5-yl)butanamide]
IC50 [1]: 202 nM
IC50 [2]: 37 nM
IC50 [3]: 5610 nM

CC(C)c1c(-c2ccnc3[nH]ncc23)[nH]c2ccc(NC(=O)[C@@H]3CCNC3)cc12 [Example 9, (R)—N-(3-isopropyl-2-(1H-pyrazolo[3,4-b]pyridin-4-yl)-1H-indol-5-yl)pyrrolidine-3-carboxamide]
IC50 [1]: 817 nM
IC50 [2]: 70 nM
IC50 [3]: 5660 nM

COc1ccc(-c2[nH]c3ccc(N4CCC(N5CCOCC5)CC4)cc3c2C(C)C)cc1OC [Example 74, 4-(1-(2-(3,4-dimethoxyphenyl)-3-isopropyl-1H-indol-5-yl)piperidin-4-yl)morpholine]
IC50 [1]: 62 nM
IC50 [2]: 15 nM
IC50 [3]: 5210 nM

CC[C@@H](C)[C@@H](N)C(=O)Nc1ccc2[nH]c(-c3ccc(OC)c(OC)c3)c(C(C)C)c2c1 [Example 17, (2R,3R)-2-amino-N-(2-(3,4-dimethoxyphenyl)-3-isopropyl-1H-indol-5-yl)-3-methylpentanamide]
IC50 [1]: 299 nM
IC50 [2]: 72 nM
IC50 [3]: 6000 nM

COc1ccc(-c2[nH]c3ccc(Nc4ccc(OCCN5CCCC5)cc4)cc3c2C(C)C)cc1OC [Example 106, 2-(3,4-dimethoxyphenyl)-3-isopropyl-N-(4-(2-(pyrrolidin-1-yl)ethoxy)phenyl)-1H-indol-5-amine]
IC50 [1]: 1400 nM
IC50 [2]: 35 nM
IC50 [3]: 1430 nM

CC(C)c1c(-c2ccnc3[nH]ncc23)[nH]c2ccc(N3CCNC3=O)cc12 [Example 27, 1-(3-isopropyl-2-(1H-pyrazolo[3,4-b]pyridin-4-yl)-1H-indol-5-yl)imidazolidin-2-one]
IC50 [1]: 180 nM
IC50 [2]: 14 nM
IC50 [3]: > 50000 nM
